The nature of data set [1]: (§1) Intrinsic clearance in human hepatocytes measured per 10^6 cells. It counts as ADME, cell-based, Hepatocyte. As to conditions: read-out: CLH.
Data set [2] has as its system Hepatocyte. The data set can be described thus: (§2) Intrinsic clearance in rat hepatocytes measured per 10^6 cells. The format is ADME, cell-based.
For data set [3], the system named is Hepatocyte. Briefly: (§3) Intrinsic clearance in mouse hepatocytes measured per 10^6 cells. It counts as ADME, cell-based.
The nature of data set [4]: Intrinsic clearance in dog hepatocytes measured per 10^6 cells. It counts as ADME, cell-based, Canis lupus familiaris, Hepatocyte.
Data set [5] is described as follows: Clearance in rat at 0.5 mg/kg, iv. Further details: dose 0.5 mg/kg, route intravenous. As to conditions: in vivo. The format is ADME, organism-based.
Data set [6] in a line: Half life in rat at 0.5 mg/kg, iv. The format is ADME, organism-based. Set-up: dose 0.5 mg/kg, route intravenous. To be noted: in vivo.
Data set [7] concerns Hepatocyte. The description is as §1. It counts as ADME, cell-based.
The nature of data set [8]: as §2. It counts as ADME, cell-based, Hepatocyte. To be noted: read-out: CLH.
Data set [9] in a line: as §3. To be noted: read-out: CLH. It counts as ADME, cell-based, Hepatocyte.
A short description of data set [10]: Drug metabolism in mouse hepatocytes assessed as (2S,3S,4S,5R,6S)-6-(2-((2R,5R,6R)-4-((S)-2-(tert-butylsulfonyl)-1-cyclopropylethyl)-6-(3-chlorophenyl)-5-(4-chlorophenyl)-3-oxomorpholin-2-yl)acetoxy)-3,4,5-trihydroxytetrahydro-2H-pyran-2-carboxylic acid formation at 10 uM by LC-MS/MS analysis. The format is ADME, cell-based, Hepatocyte.
Data set [11] in a line: Drug metabolism in rat hepatocytes assessed as (2S,3S,4S,5R,6S)-6-(2-((2R,5R,6R)-4-((S)-2-(tert-butylsulfonyl)-1-cyclopropylethyl)-6-(3-chlorophenyl)-5-(4-chlorophenyl)-3-oxomorpholin-2-yl)acetoxy)-3,4,5-trihydroxytetrahydro-2H-pyran-2-carboxylic acid formation at 10 uM by LC-MS/MS analysis. It counts as ADME, cell-based, Hepatocyte.
Data set [12] is described as follows: Drug metabolism in dog hepatocytes assessed as (2S,3S,4S,5R,6S)-6-(2-((2R,5R,6R)-4-((S)-2-(tert-butylsulfonyl)-1-cyclopropylethyl)-6-(3-chlorophenyl)-5-(4-chlorophenyl)-3-oxomorpholin-2-yl)acetoxy)-3,4,5-trihydroxytetrahydro-2H-pyran-2-carboxylic acid formation at 10 uM by LC-MS/MS analysis. It counts as ADME, cell-based, Canis lupus familiaris, Hepatocyte.

Data set [13] is described as follows: Drug metabolism in cynomolgus monkey hepatocytes assessed as (2S,3S,4S,5R,6S)-6-(2-((2R,5R,6R)-4-((S)-2-(tert-butylsulfonyl)-1-cyclopropylethyl)-6-(3-chlorophenyl)-5-(4-chlorophenyl)-3-oxomorpholin-2-yl)acetoxy)-3,4,5-trihydroxytetrahydro-2H-pyran-2-carboxylic acid formation at 10 uM by LC-MS/MS analysis. It counts as ADME, cell-based, Macaca fascicularis, Hepatocyte.

Data set [14] in a line: Drug metabolism in human hepatocytes assessed as (2S,3S,4S,5R,6S)-6-(2-((2R,5R,6R)-4-((S)-2-(tert-butylsulfonyl)-1-cyclopropylethyl)-6-(3-chlorophenyl)-5-(4-chlorophenyl)-3-oxomorpholin-2-yl)acetoxy)-3,4,5-trihydroxytetrahydro-2H-pyran-2-carboxylic acid formation at 10 uM by LC-MS/MS analysis. The format is ADME, cell-based, Hepatocyte.
Data set [15] can be described thus: Drug metabolism in mouse hepatocytes assessed as 2-((2R,5R,6R)-6-(3-chlorophenyl)-5-(4-chlorophenyl)-4-((S)-1-cyclopropyl-2-(1-hydroxy-2-methylpropan-2-ylsulfonyl)ethyl)-3-oxomorpholin-2-yl)acetic acid formation at 10 uM by LC-MS/MS analysis. It counts as ADME, cell-based, Hepatocyte.
Data set [16] is described as follows: Drug metabolism in rat hepatocytes assessed as 2-((2R,5R,6R)-6-(3-chlorophenyl)-5-(4-chlorophenyl)-4-((S)-1-cyclopropyl-2-(1-hydroxy-2-methylpropan-2-ylsulfonyl)ethyl)-3-oxomorpholin-2-yl)acetic acid formation at 10 uM by LC-MS/MS analysis. It counts as ADME, cell-based, Hepatocyte.
Data set [17] in a line: Drug metabolism in dog hepatocytes assessed as 2-((2R,5R,6R)-6-(3-chlorophenyl)-5-(4-chlorophenyl)-4-((S)-1-cyclopropyl-2-(1-hydroxy-2-methylpropan-2-ylsulfonyl)ethyl)-3-oxomorpholin-2-yl)acetic acid formation at 10 uM by LC-MS/MS analysis. It counts as ADME, cell-based, Canis lupus familiaris, Hepatocyte.
Data set [18] is described as follows: Drug metabolism in cynomolgus monkey hepatocytes assessed as 2-((2R,5R,6R)-6-(3-chlorophenyl)-5-(4-chlorophenyl)-4-((S)-1-cyclopropyl-2-(1-hydroxy-2-methylpropan-2-ylsulfonyl)ethyl)-3-oxomorpholin-2-yl)acetic acid formation at 10 uM by LC-MS/MS analysis. The format is ADME, cell-based, Macaca fascicularis, Hepatocyte.
Data set [19] is described as follows: Drug metabolism in human hepatocytes assessed as 2-((2R,5R,6R)-6-(3-chlorophenyl)-5-(4-chlorophenyl)-4-((S)-1-cyclopropyl-2-(1-hydroxy-2-methylpropan-2-ylsulfonyl)ethyl)-3-oxomorpholin-2-yl)acetic acid formation at 10 uM by LC-MS/MS analysis. It counts as ADME, cell-based, Hepatocyte.

Broadly, the clearance is the rate of elimination divided by the concentration. As a reminder, the half-life is how long it takes for the measured level to halve.

For the compound `CC[C@@H](CN(c1ccccc1F)S(=O)(=O)C(C)C)N1C(=O)[C@@H](CC(=O)O)O[C@H](c2cccc(Cl)c2)[C@H]1c1ccc(Cl)cc1`, in data set [1], the hepatocyte CLint was 15 µL/min/1e6 cells.

In the case of `CC[C@@H](CS(=O)(=O)CC(C)(C)C)N1C(=O)[C@@H](CC(=O)O)O[C@H](c2cccc(Cl)c2)[C@H]1c1ccc(Cl)cc1`, the hepatocyte CLint in data set [1] came out at 8.6 µL/min/1e6 cells.

As to `CC[C@@H](CN(c1ccc(F)cc1)S(=O)(=O)C1CC1)N1C(=O)[C@@H](CC(=O)O)O[C@H](c2cccc(Cl)c2)[C@H]1c1ccc(Cl)cc1`, the hepatocyte CLint in data set [1] came out at 7 µL/min/1e6 cells.

Turning to `CC[C@@H](CS(=O)(=O)C(C)C)N1C(=O)[C@@H](CC(=O)O)O[C@H](c2cccc(Cl)c2)[C@H]1c1ccc(Cl)cc1`, in data set [1], the hepatocyte CLint is 2.1 µL/min/1e6 cells.

Take `CC[C@@H](CN(c1ccccc1F)S(=O)(=O)C1CC1)N1C(=O)[C@@H](CC(=O)O)O[C@H](c2cccc(Cl)c2)[C@H]1c1ccc(Cl)cc1`: the hepatocyte CLint in data set [1] was less than 0.1 µL/min/1e6 cells.

`CC[C@@H](CS(=O)(=O)C(C)(C)C)N1C(=O)[C@@H](CC(=O)O)O[C@H](c2cccc(Cl)c2)[C@H]1c1ccc(Cl)cc1`: the hepatocyte CLint in [1] came out at 1.9 µL/min/1e6 cells; in the data set on Hepatocyte [2] it was 1.8 µL/min/1e6 cells; in the data set with Hepatocyte [3], 12 µL/min/1e6 cells; in data set [4], 15.5 µL/min/1e6 cells. The compound further gave a clearance in data set [5] of 3.83 mL/min/kg. The same compound gave a half-life in [6] of 4.1 h.

As for `CC(C)(C)[C@@H](CS(=O)(=O)C(C)(C)C)N1C(=O)[C@@H](CC(=O)O)O[C@H](c2cccc(Cl)c2)[C@H]1c1ccc(Cl)cc1`, in data set [1], the hepatocyte CLint came out at 2.1 µL/min/1e6 cells.

For the compound `CC[C@@H](CS(=O)(=O)c1ccccc1)N1C(=O)[C@@H](CC(=O)O)O[C@H](c2cccc(Cl)c2)[C@H]1c1ccc(Cl)cc1`, the hepatocyte CLint in [1] amounted to 10 µL/min/1e6 cells.

Consider `CC[C@@H](CN(c1ccccc1F)S(C)(=O)=O)N1C(=O)[C@@H](CC(=O)O)O[C@H](c2cccc(Cl)c2)[C@H]1c1ccc(Cl)cc1`, for which the hepatocyte CLint in data set [1] worked out at 4.7 µL/min/1e6 cells.

With `CC(C)[C@@H](CS(=O)(=O)C(C)(C)C)N1C(=O)[C@@H](CC(=O)O)O[C@H](c2cccc(Cl)c2)[C@H]1c1ccc(Cl)cc1`, in data set [1], the hepatocyte CLint is 1.7 µL/min/1e6 cells. The compound also gave a clearance in [5] of 1.83 mL/min/kg. Further, the half-life in data set [6] was 6 h.

For `C[C@@H](CS(=O)(=O)C(C)(C)C)N1C(=O)[C@@H](CC(=O)O)O[C@H](c2cccc(Cl)c2)[C@H]1c1ccc(Cl)cc1`, in [1], the hepatocyte CLint came out at 0.7 µL/min/1e6 cells.

As to `CC[C@@H](CS(=O)(=O)C1COC1)N1C(=O)[C@@H](CC(=O)O)O[C@H](c2cccc(Cl)c2)[C@H]1c1ccc(Cl)cc1`, the hepatocyte CLint in data set [1] turned out to be 6.6 µL/min/1e6 cells.

On to `CC[C@@H](CS(=O)(=O)C(C)(C)C)N1C(=O)[C@@](C)(CC(=O)O)C[C@H](c2cccc(Cl)c2)[C@H]1c1ccc(Cl)cc1`, for which the hepatocyte CLint was 15 µL/min/1e6 cells in the data set with Hepatocyte [7], 6.7 µL/min/1e6 cells with Hepatocyte [2], 18 µL/min/1e6 cells in the data set with Hepatocyte [3] and 68 µL/min/1e6 cells in [4].

Consider `CC[C@@H](CN(c1ccccc1)S(=O)(=O)C1CC1)N1C(=O)[C@@H](CC(=O)O)O[C@H](c2cccc(Cl)c2)[C@H]1c1ccc(Cl)cc1`, for which, in [1], the hepatocyte CLint stood at 3.3 µL/min/1e6 cells.

As for `CC(C)(C)S(=O)(=O)C[C@H](C1CC1)N1C(=O)[C@@H](CC(=O)O)O[C@H](c2cccc(Cl)c2)[C@H]1c1ccc(Cl)cc1`, the hepatocyte CLint in [1] amounted to 1 µL/min/1e6 cells; in data set [8], 3 µL/min/1e6 cells; in [9] it was 6 µL/min/1e6 cells; in data set [4] (read-out: CLH) it was 13 µL/min/1e6 cells. The compound further showed a clearance in data set [5] of 5.83 mL/min/kg. This compound showed a half-life in data set [6] of 5.7 h. Moreover, the Drug metabolism entry was “metabolite_detected” in [10]; “metabolite_detected” in data set [11]; “metabolite_notdetected” in data set [12]; “metabolite_detected” in data set [13]; “metabolite_notdetected” in data set [14]; “metabolite_detected” in data set [15]. Further, the Drug metabolism entry in [16] was “metabolite_detected”; in data set [17], “metabolite_notdetected”; in data set [18], “metabolite_detected”; in data set [19], “metabolite_notdetected”.

As for `CC[C@@H](CN(c1ccc(F)cc1F)S(=O)(=O)C1CC1)N1C(=O)[C@@H](CC(=O)O)O[C@H](c2cccc(Cl)c2)[C@H]1c1ccc(Cl)cc1`, the hepatocyte CLint in data set [1] is 4.8 µL/min/1e6 cells.

For `CC[C@@H](CS(=O)(=O)N(C)C)N1C(=O)[C@@H](CC(=O)O)O[C@H](c2cccc(Cl)c2)[C@H]1c1ccc(Cl)cc1`, the hepatocyte CLint in data set [1] turned out to be 19 µL/min/1e6 cells.

Take `CC[C@@H](CS(=O)(=O)C1CCCC1)N1C(=O)[C@@H](CC(=O)O)O[C@H](c2cccc(Cl)c2)[C@H]1c1ccc(Cl)cc1`: in data set [1], the hepatocyte CLint turned out to be 12 µL/min/1e6 cells.

On to `CC(C)(C)S(=O)(=O)C[C@H](CC(F)(F)F)N1C(=O)[C@@H](CC(=O)O)O[C@H](c2cccc(Cl)c2)[C@H]1c1ccc(Cl)cc1`, for which the hepatocyte CLint in [1] was found to be 4.7 µL/min/1e6 cells. The clearance in data set [5] is 7.17 mL/min/kg. Also, in data set [6], the half-life was 4 h.

Source of the values: ChEMBL document CHEMBL3232857, “Selective and potent morpholinone inhibitors of the MDM2-p53 protein-protein interaction” (J Med Chem, 2014).
